Laboratory results from US9725430B2, “Use of small molecule inhibitors targeting EYA tyrosine phosphatase” (Children's Hospital Medical Center, priority 2013, dated 2017).

Tested on: retinal vasculature
Assay: Post-natal retinal angiogenesis in mice
Assay type: in vivo
Procedure: Next, retinal blood vessel density and angiogenic extension were studied using induced deletion of Eya3 in mice by PDGFB-icreERT2 starting at the day of birth. Isolectin labeled retinal blood vessels at postnatal day 5 in control Eya3fl/fl (FIGS. 8b and 8d) and experimental Eya3fl/fl; PDGFB-icreERT2 (FIGS. […]) mice. FIGS. 8d and 8e are magnified images of the regions indicated in 8b and 8c, respectively.
Next, treatment with an inhibitor of Eya3 was performed to test the effect on post-natal retinal angiogenesis. Briefly, 100 μM of compound 1a was injected into the eyes of post-natal mice, at P0.5 and P3. P5 retinas were then analyzed for effects on the retinal vasculature.

CCc1oc2ccccc2c1C(=O)c1ccc(O)cc1 [Compound 1a]
retinal vasculature branch points (100 μM injected into eyes at P0.5 and P3, P5 retinas): quantifiable decrease in branch points
retinal angiogenesis in VEC-specific Eya3 knockout model (normal oxygen conditions): additional significant reduction in retinal angiogenesis
